Drawing on ChEMBL document CHEMBL1133973, “Asymmetric synthesis of BB-3497--a potent peptide deformylase inhibitor” (Bioorg Med Chem Lett, 2001), this text covers IC50 and inhibition for three compounds.

In general, IC50 refers to the concentration at which inhibition is half-maximal. What is called inhibition is the percentage by which the read-out fell short of the control. Lower therefore signals little suppression.

The target in assay [1] is Angiotensin-converting enzyme (Homo sapiens, UniProt P12821). Kind of assay: Compound was tested for its inhibitory activity against Angiotensin I converting enzyme.
Assay [2] deals with T1, Matrilysin (Homo sapiens) (UniProt P09237).
T1 sequence (whole entry): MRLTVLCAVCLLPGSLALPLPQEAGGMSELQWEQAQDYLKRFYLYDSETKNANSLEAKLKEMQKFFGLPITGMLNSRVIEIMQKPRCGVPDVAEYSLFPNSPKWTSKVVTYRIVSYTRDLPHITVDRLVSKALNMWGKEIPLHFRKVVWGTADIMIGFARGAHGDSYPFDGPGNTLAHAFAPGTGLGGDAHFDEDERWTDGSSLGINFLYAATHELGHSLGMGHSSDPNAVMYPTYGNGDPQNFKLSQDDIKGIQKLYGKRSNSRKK
As to the kind of experiment: (§1) Inhibition of Matrix metalloprotease-7. Conditions: concentration not given here.

For another assay, the target named is Stromelysin-1 (Homo sapiens, UniProt P08254). As to the kind of experiment: Inhibition of Matrix metalloprotease-3.
Another assay has as its target T2, Interstitial collagenase (Homo sapiens, UniProt P03956).
T2 sequence (P03956 whole entry): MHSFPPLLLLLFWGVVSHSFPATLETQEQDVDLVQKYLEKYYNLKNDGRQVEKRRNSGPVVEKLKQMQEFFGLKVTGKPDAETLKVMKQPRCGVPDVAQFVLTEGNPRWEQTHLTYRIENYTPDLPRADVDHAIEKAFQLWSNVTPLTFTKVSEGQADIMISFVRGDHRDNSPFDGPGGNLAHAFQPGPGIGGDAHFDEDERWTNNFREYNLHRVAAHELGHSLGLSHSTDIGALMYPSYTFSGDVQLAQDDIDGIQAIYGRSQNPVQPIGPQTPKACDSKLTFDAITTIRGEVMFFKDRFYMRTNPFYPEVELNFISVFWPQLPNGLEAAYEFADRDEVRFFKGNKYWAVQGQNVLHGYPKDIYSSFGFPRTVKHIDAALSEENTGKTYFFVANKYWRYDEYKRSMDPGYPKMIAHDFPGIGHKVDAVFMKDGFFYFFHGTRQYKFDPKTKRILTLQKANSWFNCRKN
As to the kind of experiment: Inhibition of human Matrix metalloprotease-1.

Assay [3] has as its target 72 kDa type IV collagenase (Homo sapiens, UniProt P08253). As to the kind of experiment: Inhibition of Matrix metalloprotease-2.
The next assay concerns the target Neprilysin (Homo sapiens, UniProt P08473). Kind of assay: The compound was evaluated in vitro for the inhibition of Neutral endopeptidase.
The target in the next assay is T3, Matrilysin (Homo sapiens, UniProt P09237).
T3 sequence (P09237 whole entry): T1 sequence (whole entry)
The description is as §1.

72 kDa type IV collagenase, sequence (P08253 whole entry): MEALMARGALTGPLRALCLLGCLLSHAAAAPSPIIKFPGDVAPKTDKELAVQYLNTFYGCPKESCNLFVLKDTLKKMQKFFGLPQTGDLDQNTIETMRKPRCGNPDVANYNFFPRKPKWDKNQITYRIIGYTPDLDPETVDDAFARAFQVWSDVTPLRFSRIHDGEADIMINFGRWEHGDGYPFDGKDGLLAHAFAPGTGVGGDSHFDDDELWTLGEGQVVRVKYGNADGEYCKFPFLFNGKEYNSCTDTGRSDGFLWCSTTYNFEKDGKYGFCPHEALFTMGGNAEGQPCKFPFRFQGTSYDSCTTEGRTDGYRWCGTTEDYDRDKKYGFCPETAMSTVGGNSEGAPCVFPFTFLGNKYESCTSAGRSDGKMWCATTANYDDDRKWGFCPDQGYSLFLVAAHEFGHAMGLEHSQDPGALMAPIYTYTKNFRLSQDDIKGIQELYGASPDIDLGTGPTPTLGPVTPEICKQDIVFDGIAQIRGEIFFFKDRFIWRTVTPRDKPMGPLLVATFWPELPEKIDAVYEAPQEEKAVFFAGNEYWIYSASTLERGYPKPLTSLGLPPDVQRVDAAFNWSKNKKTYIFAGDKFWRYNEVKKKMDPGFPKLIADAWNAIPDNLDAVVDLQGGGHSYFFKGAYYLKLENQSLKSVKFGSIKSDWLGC
Stromelysin-1, sequence (P08254 whole entry): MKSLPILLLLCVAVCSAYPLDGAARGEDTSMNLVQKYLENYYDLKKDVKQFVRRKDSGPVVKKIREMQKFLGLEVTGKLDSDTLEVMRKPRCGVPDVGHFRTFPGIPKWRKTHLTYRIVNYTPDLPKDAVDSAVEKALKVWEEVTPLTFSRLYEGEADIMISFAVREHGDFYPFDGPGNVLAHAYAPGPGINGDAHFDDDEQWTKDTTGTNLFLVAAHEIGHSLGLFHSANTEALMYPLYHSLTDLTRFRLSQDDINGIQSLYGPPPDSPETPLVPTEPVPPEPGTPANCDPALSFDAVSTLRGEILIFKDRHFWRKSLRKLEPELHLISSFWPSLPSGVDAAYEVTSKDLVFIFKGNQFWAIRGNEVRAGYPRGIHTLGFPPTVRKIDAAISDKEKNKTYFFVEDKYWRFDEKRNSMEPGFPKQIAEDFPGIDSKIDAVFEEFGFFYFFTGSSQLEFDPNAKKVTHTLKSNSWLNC
Neprilysin, sequence (P08473 whole entry): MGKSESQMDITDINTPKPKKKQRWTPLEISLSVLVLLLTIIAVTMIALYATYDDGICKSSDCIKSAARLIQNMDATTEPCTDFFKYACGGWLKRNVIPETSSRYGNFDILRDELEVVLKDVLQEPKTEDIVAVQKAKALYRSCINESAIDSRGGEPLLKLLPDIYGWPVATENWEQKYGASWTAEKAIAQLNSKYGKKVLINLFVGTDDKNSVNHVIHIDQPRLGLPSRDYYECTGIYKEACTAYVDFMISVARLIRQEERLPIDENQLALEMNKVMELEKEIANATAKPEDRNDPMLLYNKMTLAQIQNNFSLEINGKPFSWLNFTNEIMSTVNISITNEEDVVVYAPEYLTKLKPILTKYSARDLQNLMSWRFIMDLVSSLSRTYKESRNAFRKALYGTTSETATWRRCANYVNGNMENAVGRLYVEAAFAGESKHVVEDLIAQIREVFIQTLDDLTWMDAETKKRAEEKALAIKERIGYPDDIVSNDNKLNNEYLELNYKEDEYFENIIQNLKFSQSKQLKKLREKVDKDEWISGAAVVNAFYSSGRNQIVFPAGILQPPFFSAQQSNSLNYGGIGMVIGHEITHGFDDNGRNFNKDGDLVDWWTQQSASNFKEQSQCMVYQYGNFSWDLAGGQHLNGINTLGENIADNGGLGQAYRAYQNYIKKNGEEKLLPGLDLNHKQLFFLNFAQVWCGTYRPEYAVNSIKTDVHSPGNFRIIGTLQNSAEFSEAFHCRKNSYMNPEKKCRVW
Angiotensin-converting enzyme, sequence (P12821 whole entry): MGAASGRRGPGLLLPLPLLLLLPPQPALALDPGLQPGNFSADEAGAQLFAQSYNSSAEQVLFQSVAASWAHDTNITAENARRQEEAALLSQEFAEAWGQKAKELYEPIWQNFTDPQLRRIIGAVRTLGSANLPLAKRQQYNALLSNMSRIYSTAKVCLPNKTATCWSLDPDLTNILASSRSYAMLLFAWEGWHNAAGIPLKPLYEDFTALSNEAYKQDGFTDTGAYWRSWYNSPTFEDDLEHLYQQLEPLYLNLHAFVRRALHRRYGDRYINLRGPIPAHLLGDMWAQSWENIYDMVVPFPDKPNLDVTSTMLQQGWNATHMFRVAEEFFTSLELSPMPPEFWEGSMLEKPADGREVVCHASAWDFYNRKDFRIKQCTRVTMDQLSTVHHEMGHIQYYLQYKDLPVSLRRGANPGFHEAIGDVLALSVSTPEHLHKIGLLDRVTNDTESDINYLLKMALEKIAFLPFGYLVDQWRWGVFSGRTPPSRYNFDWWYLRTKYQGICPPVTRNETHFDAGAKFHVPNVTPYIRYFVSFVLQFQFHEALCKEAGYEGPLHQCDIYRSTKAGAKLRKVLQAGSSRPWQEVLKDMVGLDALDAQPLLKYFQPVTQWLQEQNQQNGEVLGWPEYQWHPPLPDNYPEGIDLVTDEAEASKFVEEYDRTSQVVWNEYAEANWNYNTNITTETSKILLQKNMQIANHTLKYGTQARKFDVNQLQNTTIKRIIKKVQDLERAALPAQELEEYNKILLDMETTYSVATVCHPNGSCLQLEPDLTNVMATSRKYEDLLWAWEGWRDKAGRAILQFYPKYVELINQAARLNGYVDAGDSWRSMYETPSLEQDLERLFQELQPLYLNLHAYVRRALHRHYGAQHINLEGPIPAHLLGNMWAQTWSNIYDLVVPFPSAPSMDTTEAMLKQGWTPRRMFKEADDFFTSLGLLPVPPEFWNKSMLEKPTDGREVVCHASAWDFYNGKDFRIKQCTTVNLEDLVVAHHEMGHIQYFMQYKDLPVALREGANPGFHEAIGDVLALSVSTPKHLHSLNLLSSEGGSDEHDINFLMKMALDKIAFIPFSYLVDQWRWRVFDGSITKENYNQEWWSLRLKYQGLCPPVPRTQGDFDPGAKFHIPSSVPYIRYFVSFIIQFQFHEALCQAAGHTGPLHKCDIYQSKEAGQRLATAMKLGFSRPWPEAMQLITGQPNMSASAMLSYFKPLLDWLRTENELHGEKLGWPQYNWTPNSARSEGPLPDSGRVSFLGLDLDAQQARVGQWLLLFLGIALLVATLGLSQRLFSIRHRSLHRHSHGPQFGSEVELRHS

As to `CCCCC[C@H](CC(=O)NO)C(=O)N[C@H](C(=O)N1CCC[C@H]1CO)C(C)C` [ACTINONIN], the IC50 in assay [1] was over 100 µM; against Stromelysin-1, 6 µM; on Interstitial collagenase, 1.1 µM; in assay [3] it was 3 µM; on Neprilysin, 6.7 µM. In addition, the inhibition in assay [2] worked out at 60%.

Turning to `CCCC[C@H](CN(O)C=O)C(=O)N[C@H](C(=O)N(C)C)C(C)(C)C`, the IC50 in assay [1] is over 100 µM; at Matrilysin, over 100 µM; against Stromelysin-1 it was over 100 µM; against Interstitial collagenase, 2 µM; in assay [3], 15 µM; at Neprilysin, 50 µM.

Take `CCCCC(CN(O)C=O)C(=O)N[C@H](C(=O)N(C)C)C(C)(C)C` (stereo partly specified): the half-maximal inhibitory concentration (IC50) (at Matrilysin; on Stromelysin-1; against Interstitial collagenase; in assay [3]) was over 100 µM throughout.
